Measurements: patent US11136348B2, “Furostan-3-ol derivatives as skeletal muscle hypertrophic agents” (EMMYON, INC., priority 2015, dated 2021)

Key:
C2C12 skeletal myotubes = experiment: Total cellular protein content in C2C12 skeletal myotubes (BCA); format: cell-based, Mouse; details: 48 h incubation, vs vehicle (0.1% DMSO); for Percent change in total protein at 0.03 µM / Percent change in total protein at 0.1 µM / Percent change in total protein at 0.3 µM / Percent change in total protein at 1 µM / Percent change in total protein at 3 µM: Mus musculus, C2C12
Method: The compounds were tested in a well-established in vitro model of skeletal muscle, namely fully differentiated, post-mitotic C2C12 skeletal myotubes. Mouse C2C12 myoblasts may be obtained from ATCC (CRL-1772) and maintained at 37° C. and 5% CO2 in Dulbecco's modified Eagle's medium (ATCC #30-2002) containing antibiotics (100 units/mL penicillin, […] streptomycin sulfate) and 10% (v/v) fetal bovine serum (FBS). Myoblasts were set up for experiments on day 0 in 6-well plates at a density of 2.5×10^5 cells/well. On day 2, myoblasts were induced to differentiate into myotubes by replacing 10% FBS with 2% horse serum (HS). On day 7, myotubes were rinsed once with PBS, and then 2% HS was replaced with 10% FBS. The vehicle (0.1% DMSO) or varying concentrations of test compound were added directly to the media. After 48 h incubation, myotube protein content and size were measured.
To determine myotube protein content, myotubes were washed with ice cold PBS, scraped into lysis buffer (10 mM Tris-HCl, pH 7.6, 100 mM NaCl, and 1% (w/v) SDS, complete Mini protease inhibitor cocktail (Roche), and a 1:100 dilution of phosphatase inhibitor cocktail 3 (Sigma)), and then lysed with 10 passes through a 22-gauge needle. An aliquot of each myotube lysate sample was then used to determine protein concentration by the BCA kit (Pierce). […] To determine myotube size, myotubes were subjected to immunofluorescence staining with anti-troponin primary antibody and a fluorescent secondary antibody. Myotubes were then imaged on an Olympus IX-71 microscope equipped with a DP-70 camera and epifluorescence filters. Image analysis was performed using ImageJ software.

[1] = system: Male C57BL/6 mice, tibialis anterior (TA) muscle; experiment: Mouse model of muscular atrophy: unilateral tibialis anterior immobilization; format: in vivo; details: 10 mg/kg i.p. twice a day for 7 days; 6 days TA immobilization; immobilized TA weight normalized to contralateral mobile TA; 12-13 mice
Method: Compounds of the invention were also tested in vivo in an established mouse model for muscular atrophy. Male C57BL/6 mice (8-10 weeks old) were administered i.p. injections of vehicle (corn oil) or 10 mg/kg test compound twice a day for 7 days. After 1 day of i.p. injections, one tibialis anterior (TA) muscle in each mouse was immobilized with a metal clip to induce skeletal muscle atrophy, as described previously (Dyle et al., Journal of Biological Chemistry 289: 14913-14924, 2014). In each mouse, the contralateral TA muscle remained mobile and served as a non-atrophied intrasubject control. After 7 days of i.p injections (6 days of unilateral TA immobilization), bilateral TA muscles were harvested and weighed. In each mouse, the amount of skeletal muscle loss in the immobilized TA muscle was determined by normalizing the weight of the immobilized TA muscle to the weight of the contralateral mobile (control) TA muscle. The data below are means ±SEM from 12-13 mice per condition. table: […]

Row | SMILES | Percent change in total protein at 0.03 µM (C2C12 skeletal myotubes; 0.03 μM) [%] | Percent change in total protein at 0.1 µM (C2C12 skeletal myotubes; 0.1 μM) [%] | Percent change in total protein at 0.3 µM (C2C12 skeletal myotubes; 0.3 μM) [%] | Percent change in total protein at 1 µM (C2C12 skeletal myotubes; 1 μM) [%] | Percent change in total protein at 3 µM (C2C12 skeletal myotubes; 3 μM) [%] | % Muscle Loss (Mean ± SEM) [1] [%] | Percent Change in Total Protein (C2C12 skeletal myotubes; 0.03 μM) [%] | Percent Change in Total Protein (C2C12 skeletal myotubes; 0.1 μM) [%] | Percent Change in Total Protein (C2C12 skeletal myotubes; 0.3 μM) [%] | Percent Change in Total Protein (C2C12 skeletal myotubes; 1 μM) [%] | Percent Change in Total Protein (C2C12 skeletal myotubes; 3 μM) [%]
1 | CC1=C(CC[C@H](C)CNC(C)C(F)F)O[C@H]2C[C@H]3[C@@H]4CC[C@H]5C[C@@H](O)CC[C@]5(C)[C@H]4CC[C@]3(C)[C@@H]12 (stereo partly drawn) [Example 9, (2aS,4S,6aS,6bS,8aS,8bS,11aS,12aS,12bR)-10-((3S)-4-((1,1-Difluoropropan-2-yl)amino)-3-methylbutyl)-6a,8a,9-trimethyl-2,2a,3,4,5,6,6a,6b,7,8,8a,8b,11a,12,12a,12b-hexadecahydro-1H-naphtho[2′,1′:4,5]indeno[2,1-b]furan-4-ol] | -1.5 ± 2.3 | 1.2 ± 0.7 | 8.6 ± 2.5 | 6.2 ± 2.1 | 6.9 ± 2.6 | – | – | – | – | – | –
2 | CC1=C(CC[C@H](C)CNC(=O)OC(C)(C)C)O[C@H]2C[C@H]3[C@@H]4CC[C@H]5C[C@@H](O)CC[C@]5(C)[C@H]4CC[C@]3(C)[C@@H]12 [Example 2, tert-Butyl ((S)-4-((2aS,4S, 6aS,6bS, 8aS, 8bS,11aS,12aS,12bR)-4-hydroxy-6a, 8a,9-trimethyl-2,2a,3 ,4,5,6,6a,6b,7,8,8a, 8b,11a,12,12a,12b-hexadecahydro-1H-naphtho[2′,1′:4,5]indeno[2,1-b]furan-10-yl)-2-methylbutyl)carbamate] | 3.2 ± 2.1 | 3.2 ± 3 | 4.9 ± 3.9 | 8.3 ± 3.8 | 10.8 ± 3 | 8.6 ± 1.8 | – | – | – | – | –
3 | CC(=O)NC[C@@H](C)CCC1=C(C)[C@H]2[C@H](C[C@H]3[C@@H]4CC[C@H]5C[C@@H](OC(C)=O)CC[C@]5(C)[C@H]4CC[C@@]32C)O1 [Example 1, (2aS,4S,6aS,6bS,8aS,8bS,11aS,12aS,12bR)-10-((S)-4-acetamido-3-methylbutyl)-6a,8a,9-trimethyl-2,2a,3,4,5,6,6a,6b,7,8,8a,8b,11a,12,12a,12b-hexadecahydro-1H-naphtho[2′,1′:4,5]indeno[2,1-b]furan-4-yl acetate] | 1 ± 1.1 | 5.6 ± 3.3 | 10.7 ± 1.9 | 16.7 ± 1.3 | 18.1 ± 0.5 | 4.8 ± 1.4 | – | – | – | – | –
4 | CC(=O)O[C@H]1CC[C@@]2(C)[C@@H](CC[C@@H]3[C@@H]2CC[C@@]2(C)[C@H]3C[C@@H]3OC(CC[C@H](C)CNC(=O)OC(C)(C)C)=C(C)[C@@H]32)C1 [Example 4, (2aS,4S,6aS,6bS,8aS,8bS,11aS,12aS,12bR)-10-((S)-4-((tert-butoxycarbonyl)amino)-3-methylbutyl)-6a,8a,9-trimethyl-2,2a,3,4,5,6,6a,6b,7,8,8a,8b,11a,12,12a,12b-hexadecahydro-1H-naphtho[2′,1′:4,5]indeno[2,1-b]furan-4-yl acetate acetate] | 4.3 ± 1.6 | 4 ± 2.1 | 11.2 ± 2.3 | 13.4 ± 1.5 | 11.4 ± 2.9 | – | – | – | – | – | –
5 | CC1=C(CC[C@H](C)CN(C)C)O[C@H]2C[C@H]3[C@@H]4CC[C@H]5C[C@@H](O)CC[C@]5(C)[C@H]4CC[C@]3(C)[C@@H]12 [Example 8, (2aS,4S,6aS,6bS,8aS,8bS,11aS,12aS,12bR)-10-((S)-4-(Dimethylamino)-3-methylbutyl)-6a,8a,9-trimethyl-2,2a,3,4,5,6,6a,6b,7,8,8a,8b,11a,12,12a,12b-hexadecahydro-1H-naphtho[2′,1′:4,5]indeno[2,1-b]furan-4-ol] | 0.5 ± 2.1 | 5 ± 1.9 | 9.7 ± 0.7 | 10.7 ± 1.6 | 9.1 ± 1.2 | – | – | – | – | – | –
6 | CC1=C(CC[C@H](C)CNC(=O)OCC(C)C)O[C@H]2C[C@H]3[C@@H]4CC[C@H]5C[C@@H](O)CC[C@]5(C)[C@H]4CC[C@]3(C)[C@@H]12 [Example 6, Isobutyl ((S)-4-((2aS,4S,6aS,6bS, 8aS, 8bS,11aS,12aS,12bR)-4-hydroxy-6a, 8a,9-trimethyl-2,2a,3,4,5,6,6a,6b,7,8,8a, 8b,11a,12,12a,12b-hexadecahydro-1H-naphtho[2′,1′:4,5]indeno[2,1-b]furan-10-yl)-2-methylbutyl)carbamate] | 1.1 ± 0.8 | -0.1 ± 3.1 | 4.2 ± 3.2 | 10.9 ± 3.1 | 9 ± 1.6 | – | – | – | – | – | –
7 | CC1=C(CC[C@H](C)CNC(=O)OC(C)(C)C)O[C@H]2C[C@H]3[C@@H]4CC[C@H]5CC(NCCO)CC[C@]5(C)[C@H]4CC[C@]3(C)[C@@H]12 (stereo partly drawn) [Example 10, tert-Butyl ((2S)-4-((2aS,6aS,6bS,8aS,8bS,11aS,12aS,12bR)-4-((2-hydroxyethyl)amino)-6a,8a,9-trimethyl-2,2a,3,4,5,6,6a,6b,7,8,8a,8b,11a,12,12a,12b-hexadecahydro-1H-naphtho[2′,1′:4,5]indeno[2,1-b]furan-10-yl)-2-methylbutyl)carbamate] | 10.3 ± 2.7 | 10.6 ± 2.2 | 15 ± 2.2 | 12.9 ± 1.6 | 16.1 ± 1.6 | – | – | – | – | – | –
8 | CC1=C(CC[C@H](C)CN)O[C@H]2C[C@H]3[C@@H]4CC[C@H]5CC(NCCO)CC[C@]5(C)[C@H]4CC[C@]3(C)[C@@H]12.Cl.Cl (stereo partly drawn) [Example 11, 2-(((2aS,6aS,6bS,8aS,8bS,11aS,12aS,12bR)-10-((S)-4-amino-3-methylbutyl)-6a,8a,9-trimethyl-2,2a,3,4,5,6,6a,6b,7,8,8a,8b,11a,12,12a,12b-hexadecahydro-1H-naphtho[2′,1′:4,5]indeno[2,1-b]furan-4-yl)amino)ethanol dihydrochloride] | – | – | – | – | – | – | −1.8 ± 2.0 | 7.7 ± 1.5 | 6.3 ± 1.9 | 8.8 ± 2.1 | 4.9 ± 1.1
9 | CC1=C(CC[C@H](C)CN)O[C@H]2C[C@H]3[C@@H]4CC[C@H]5C[C@@H](O)CC[C@]5(C)[C@H]4CC[C@]3(C)[C@@H]12.Cl [Example 3, (2aS,4S,6aS,6bS,8aS,8bS,11aS,12aS,12bR)-10-((S)-4-Amino-3-methylbutyl)-6a,8a,9-trimethyl-2,2a,3,4,5,6,6a,6b,7,8,8a,8b,11a,12,12a,12b-hexadecahydro-1H-naphtho[2′,1′:4,5]indeno[2,1-b]furan-4-ol hydrochloride] | – | – | – | – | – | 8.3 ± 1.9 | 3.8 ± 1.8 | 6.7 ± 2.4 | 9.2 ± 2.4 | 16.4 ± 1.3 | 17.9 ± 0.7
10 | CC1=C(CC[C@H](C)CNC(C)C)O[C@H]2C[C@H]3[C@@H]4CC[C@H]5C[C@@H](O)CC[C@]5(C)[C@H]4CC[C@]3(C)[C@@H]12 [Example 7, (2aS,4S,6aS,6bS,8aS,8bS,11aS,12aS,12bR)-10-((S)-4-(Isopropylamino)-3-methylbutyl)-6a,8a,9-trimethyl-2,2a,3,4,5,6,6a,6b,7,8,8a,8b,11a,12,12a,12b-hexadecahydro-1H-naphtho[2′,1′:4,5]indeno[2,1-b]furan-4-ol] | -0.9 ± 1.5 | 0.5 ± 1.9 | 11.6 ± 2.3 | 11 ± 1.9 | 12.2 ± 3.2 | – | – | – | – | – | –
